Source: publication PMC4879371, “Antitrypanosomal Activities and Mechanisms of Action of Novel Tetracyclic Iridoids from Morinda lucida Benth” (Antimicrobial Agents and Chemotherapy, 2016)
Entries after “also recorded” stand apart in the source; their conditions may differ.

Legend:
[1] = test system: Trypanosoma brucei parasites; experiment: FACS cell cycle assay, time course; assay type: cell-based
Description: Seeding and incubation of parasites with compounds were done under the same conditions as those for the alamarBlue assay as described above without addition of the alarmarBlue reagent. In this case, after 24 h of incubation, Guava reagents for Nexin and cell cycle assays were added, and each assay was performed using the Millipore Guava easyCyte 5HT fluorescence-activated cell sorter (FACS) machine according to the manufacturer's instruction. The Nexin assay and subsequent FACS analysis allowed for detection of markers of apoptosis induction by the plant materials. Similarly, the cell cycle assay and subsequent FACS analysis allowed for detection of markers of cell cycle alteration by the plant materials.
To investigate the sequence in which the events (apoptosis induction, PFR-2 suppression, and cell cycle alteration) involved in mechanisms of action occur, we examined the time course for the three events using ML-2-3-treated parasites. Trypanosoma brucei parasites were incubated for 0, 0.5, 1.5, 3, 6, and 24 h with 15 μM ML-2-3 and were then subjected to both Nexin assay and Western blot analyses using the PFR-2 antibody. We further investigated the time course of cell cycle alteration using ML-2-3-treated parasites at similar concentrations and incubation periods.

[2] = test system: four human normal cell lines (NB1RGB, HF-19, Chang Liver, Hs888Lu); experiment: MTT cytotoxicity assay, all cell lines tested; assay type: cell-based
Description: The cytotoxicity of the compounds to mammalian cells were determined using four human normal cell lines, namely, NB1RGB (skin fibroblast) and HF-19 (lung fibroblast) obtained from the RIKEN Bio Resource Center Cell Bank (Japan) and Chang Liver and Hs888Lu (lung) obtained from the European Collection of Authenticated Cell Cultures (ECACC). NB1RGB and HF-19 were maintained in minimum essential medium-α (MEM-α). Chang Liver and Hs888Lu were grown in Eagle's minimum essential medium (EMEM) and RPMI 1640, respectively. All of these media were supplemented with 10% fetal bovine serum (FBS) and 1% penicillin-streptomycin and were then incubated at 37°C under 5% CO2 in fully humidified conditions.
Cytotoxicity was determined using a 3-(4,5-dimethylthiazol-2-yl)-2,5-diphenyltetrazolium bromide (MTT) assay. The cells were treated with molucidin, ML-2-3, or ML-F52 at concentrations of ≤50 μM for 48 h. Cells were plated at a density of 0.5 × 10^4 cells/well into 96-well plates. After 24 h of incubation, cells were treated with various concentrations of each of the purified compounds for 48 h. Then, MTT solution was added to each well, and the cells were incubated for another 4 h. The precipitated MTT-formazan product was dissolved in 0.04 N HCl-isopropanol, and the amount of formazan was measured at a wavelength of 595 nm by a microplate reader (Immuno Mini NJ-2300; Nihon InterMed, Tokyo, Japan). Cytotoxicity was calculated as the percentage of live cells relative to the control culture. The selectivity index (SI) was expressed as the ratio of the IC50 obtained for mammalian cells and the IC50 for trypanosomes.

[3] = test system: GUTat 3.1 strain of the bloodstream form of T. brucei brucei; experiment: alamarBlue in vitro viability test for trypanosome parasites; assay type: cell-based; settings: Trypanosoma brucei, 48 h of incubation, read-out: IC50, antitrypanosomal activity
Description: The GUTat 3.1 strain of the bloodstream form of T. brucei brucei parasites was used in this study. Parasites were cultured in vitro according to the conditions established previously ([36]). Parasites were used when they reached a confluent concentration of 1 × 10^6 parasites/ml. Estimation of parasitemia was done with the Neubauer counting chamber. Parasites were diluted to a concentration of 3 × 10^5 parasites/ml with HM1-9 medium and were used for the various experiments.
The alamarBlue assay (Life Technologies, USA) was carried out on treated or untreated trypanosome parasites to ascertain their viability. The assay was performed in a 96-well plate following the manufacturer's instructions with modification. Briefly, 1.5 × 10^4 parasites were seeded with varied concentrations of plant material (extracts, fractions, or compounds) ranging from 0.78 μg/ml to […]. Final concentrations of EtOH and dimethyl sulfoxide (DMSO) were kept at <1% and 0.1%, respectively. After incubation of parasites with or without plant extracts or compounds for 24 h at 37°C in 5% CO2, 10% alamarBlue dye was added, and the parasites were incubated another 24 h in darkness. After a total of 48 h, the plate was read for absorbance at 540 nm using the Tecan Sunrise Wako spectrophotometer. The trend curve was drawn to obtain a 50% inhibitory concentration (IC50) of each plant material (extracts, fractions, and compounds).

[4] = test system: T. brucei brucei parasites; experiment: Parasite morphology, DAPI / anti-PFR-2 immunohistochemistry; assay type: cell-based, Trypanosoma brucei brucei; settings: 24 h; 5 μM molucidin, 15 μM ML-2-3, 0.43 μM ML-F52
Description: To investigate the effect of the compounds on parasite morphology and their flagellum function, immunohistochemistry using anti-paraflagellum rod protein anti-PFR-2 antibody ([37]), was performed with molucidin-, ML-2-3-, and ML-F52-treated trypanosome parasites. […] Parasites were then harvested after incubation with or without appropriate concentrations of compounds and were fixed with 4% paraformaldehyde in 8-well chamber slides at room temperature for 5 min. Washing steps were carried out with 500 μl of phosphate-buffered saline (PBS) twice and 0.1% Triton X-100 in PBS (PBST) at room temperature for 5 min each. Blocking reagent (500 μl; 3% bovine serum albumin [BSA] in PBS) was added and incubated for 30 min at room temperature. Primary and secondary antibody incubation with parasites was done for 1 h each, and 4′,6-diamidino-2-phenylindole (DAPI) (5 μg/ml DAPI in PBS) staining was done for 10 min. After the washing steps presented above, the slides were mounted using PermaFluor mounting reagent and were covered with coverslips. The slides were observed under an Olympus fluorescence microscope (Olympus BX53) to detect any phenotypic changes in T. brucei brucei parasites.

[5] = test system: Trypanosoma parasites (T. brucei brucei); experiment: FACS Nexin assay for apoptosis in trypanosome parasites; assay type: cell-based; settings: 24 h; for minimum concentration inducing strong apoptosis: 0 μM to 50 μM tested; for apoptosis induction: molucidin 6.25 μM, ML-2-3 6.25 μM, ML-F52 0.78 μM
Description: Seeding and incubation of parasites with compounds were done under the same conditions as those for the alamarBlue assay as described above without addition of the alarmarBlue reagent. In this case, after 24 h of incubation, Guava reagents for Nexin and cell cycle assays were added, and each assay was performed using the Millipore Guava easyCyte 5HT fluorescence-activated cell sorter (FACS) machine according to the manufacturer's instruction. The Nexin assay and subsequent FACS analysis allowed for detection of markers of apoptosis induction by the plant materials. Similarly, the cell cycle assay and subsequent FACS analysis allowed for detection of markers of cell cycle alteration by the plant materials. […]

Plasmodium yoelii = experiment: Preliminary in vivo studies against Plasmodium yoelii; settings: BALB/c mice, unpublished data

Structure (SMILES)	time of exposure to significant changes in cell cycle ([1]; 15 μM ML-2-3)	S-phase cells ([1]; 15 μM, 0.5 h to 24 h)	G2/M-phase cells ([1]; 15 μM, within 0.5 h of exposure, decreased from 31%)	selectivity index (SI) for all of the cell lines [2]	cytotoxicity among all cell lines ([2]; ≤50 μM, 48 h)	IC50 [3]	effect on nuclei and kinetoplast (DAPI) [4]	effect on parasite cell form [4]	minimum concentration inducing strong apoptosis [5]	early-stage apoptotic cells (lower right quadrant) ([5]; 6.25 μM)	late-stage apoptotic cells (upper right quadrant) ([5]; 6.25 μM)	apoptosis induction [5]	efficacy against Plasmodium yoelii in vivo (Plasmodium yoelii)	early-stage apoptotic cells (lower right quadrant) ([5]; 0.78 μM)	late-stage apoptotic cells (upper right quadrant) ([5]; 0.78 μM)
COc1cc(/C=C2/C(=O)O[C@]34C=C[C@@H]5C(C(=O)O)=CO[C@H](O[C@@H]23)[C@@H]54)ccc1O [ML-2-3]	≤ 0.5 h	stayed stable	9%	> 10	did not show any cytotoxicity	3.75 µM	fragmented nuclei with normal kinetoplast	typical short stumpy form	6.25 µM	7.8%	4.4%	significant apoptosis induction			
COC(=O)C1=CO[C@@H]2O[C@H]3/C(=C\c4ccc(O)c(OC)c4)C(=O)O[C@]34C=C[C@H]1[C@H]24 [molucidin]						1.27 µM	intact kinetoplast but totally disintegrated nuclei	stumpy-like parasites		1.1%	0%	no significant induction of apoptosis; also recorded: no significant apoptotic induction	significant efficacy		
CCOC(=O)C1=CO[C@@H]2O[C@H]3/C(=C\c4ccc(O)c(OC)c4)C(=O)O[C@]34C=C[C@H]1[C@H]24 [ML-F52]				> 10		0.43 µM	fragmented nuclei with normal kinetoplast	abnormal cells that had two sets of kinetoplasts and flagellum with fragmented nuclei	0.78 µM			strongest induction of apoptosis		14.2%	2.3%
